The values below come from patent publication EP1004317A1, “REMEDIES FOR DISEASES ASSOCIATED WITH BONE RESORPTION” (CHUGAI SEIYAKU KABUSHIKI KAISHA, priority 1997, dated 1999).

For test [1], the system named is ovariectomized rats. The test can be described thus: Effect on ovariectomized rats: lumbar bone density. Conditions: sham group = 100%, control OVX group 85.2%. It counts as in vivo, Female Wistar-Imamichi rats. From the text: (§1) Female Wistar-Imamichi rats were subjected to ovariectomy (OVX). As test drugs, use was made of L-N-6-(1-iminoethyl)lysine hydrochloride (NIL) and S-ethylisothiourea (EIT) which are known as selective iNOS inhibitors. […] To confirm the validity of the test system, 17-β-estradiol (βE2) was also employed.
(§2) One day after OVX, the rats were divided into 7 groups each having 7 animals. The administration of the drug was started on the day 4 after OVX. As a control, a sham group (7 animals) was also employed. NIL was orally administered in a dose of 0.1 or 0.02 mg/kg (0.1 ml per 100 g of body weight) 5 times per week for 10 weeks.
In this graph, the data are expressed in "mean ± standard deviation". According to Dunnet's multiple comparison method, the statistically significant differences from the control ovariectomy group are expressed as follows: • **: p < 0.01, ***: p < 0.001.

A further test concerns eNOS/iNOS. Conditions: cited from earlier work.
Test [2] relates to ovariectomized rats. Description: Effect on ovariectomized rats: biochemical parameter of urine (bone resorption marker). It counts as in vivo, Female Wistar-Imamichi rats. Conditions: for D-pyr/Cre: OVX rats, urine collected after the final administration, mean ± standard deviation, n = 7, control OVX 11.83 ± 2.02.
Text: as §1, §2
According to Dunnet's multiple comparison method, the statistically significant differences from the control ovariectomy group are expressed as follows: **: p < 0.01, ***: p < 0.001.
Number of animals/group = 7. Mean ± standard deviation.

A further test relates to nNOS/iNOS. Conditions: cited from earlier work.
The test system of another test is cNOS/iNOS. As to conditions: cited from earlier work.

SMILES strings stand for the structures. Where a name gives a salt, the structure may show the parent alone. Marks after values point to notes of the source that are not given here.

`CCSC(=N)N` [EIT, S-ethylisothiourea] gave a lumber bone density in the test on ovariectomized rats [1] (EIT administration group, 24 hours after the final administration, p < 0.01) of 92.6%. In addition, the “eNOS/iNOS (NOS inhibitory activity expressed in the ratio of IC50)” value in the test on eNOS/iNOS is 28.46. In addition, the “excretion of deoxypyridinoline (D-pyr) versus control OVX group (in words)” value in the test on ovariectomized rats [2] (EIT administration group, no statistically significant difference) was “a tendency toward decrease”. Besides, in the test with ovariectomized rats [2] (dose 0.1 mg/kg), the D-pyr/Cre was 9.95 ± 1.71. The “nNOS/iNOS (NOS inhibitory activity expressed in the ratio of IC50)” value in the test on nNOS/iNOS is given as 19.23.
As to `CC(=N)NCCCC[C@H](N)C(=O)O` [NIL, L-N-6-(1-iminoethyl)lysine hydrochloride], the lumber bone density with ovariectomized rats [1] (0.02 mg/kg orally, 5 times per week for 10 weeks) came out at 86.8%; in the test on ovariectomized rats [1] (0.1 mg/kg orally, 5 times per week for 10 weeks), 90.2%. Further, in the test with cNOS/iNOS, the “cNOS/iNOS (NOS inhibitory activity expressed in the ratio of IC50)” value was 28. In addition, in the test on ovariectomized rats [2] (0.02 mg/kg, p < 0.01), the “excretion of deoxypyridinoline (D-pyr), acceleration versus control OVX group (in words)” value is recorded as “significantly inhibited”. Further, the D-pyr/Cre in the test with ovariectomized rats [2] (dose 0.02 mg/kg) was 8.70 ± 1.59**; in the test on ovariectomized rats [2] (dose 0.1 mg/kg) it was 10.43 ± 1.15.
On to `C[C@]12CC[C@@H]3c4ccc(O)cc4CC[C@H]3[C@@H]1CC[C@@H]2O` [βE2, 17-β-estradiol], for which the D-pyr/Cre in the test with ovariectomized rats [2] (dose 0.02 mg/kg) is reported as 4.16 ± 1.45**.
